From patent US20040072246A1, “System and method for identifying t cell and other epitopes and the like” (priority 2003, published 2004)
Where no end group is shown, it is not given here.

How the values were obtained:
Format in all cases: cell-based, human
T-cell clone CSF-3 = assay: Proliferative assay of T-cell clone CSF-3 (3H-thymidine incorporation); settings: for EC50: peptide concentration inducing half-maximal proliferation, TCC CSF-3, Table 5; for Potency EC50: concentration inducing half-maximal proliferation; for Potency max. response / Potency % of Max. response / Potency % of max. response: percentage of highest proliferative response (100% = 28,255 c.p.m. for peptide 77)
Experimental: (§1) The proliferation of TCC in response to PS-SCL or individual peptides was tested by seeding in duplicate 2×10^4 T cells, 5×10^4 irradiated PBMC with or without mixtures from PS-SCL or peptide. Proliferation was measured by [^3H]-thymidine incorporation (Hemmer B. et al., 2000, J Immunol 164:861).
(§2) The proliferation of T-cell clones in response to PS-SCL or individual peptides was tested by seeding in duplicate 2×10^4 T-cells, 5×10^4 irradiated peripheral blood mononuclear cells with or without 200 μg/ml PS-SCL or peptide (Hemmer, B. et al. 1998, J Pept Res 52: 338-345). Proliferation was measured by ^3H-thymidine incorporation (Hemmer, B. et al. 1997, J Exp Med 185: 1651-1659). Experiments were repeated at least twice. HLA restriction was determined by using bare lymphocyte syndrome cells transfected with DR2a (DRB5*0101) or DR2b (DRB1*1501) (provided by G. Nepom, University of Washington, Seattle) (Kovats, S. et al. 1994, J Exp Med 179: 2017-2022). The proliferation of peripheral blood mononuclear cells was measured in an IL-7-modified 7-day primary proliferation assay. Peripheral blood mononuclear cells (1×10^5 per well; 10 wells each and 10 control wells per plate) were seeded with 10 ng/ml IL-7 and 15 μg/ml peptide. Then, 1 μCi ^3H-thymidine/well was added at day 7 for 12 h before radioactivity was measured. Wells were considered positive if the counts per minute exceeded the average background proliferation+3 s.d. (Reece J. C. et al., 1993, Immunol 151: 6175-6184).

[1] = tested on: peripheral blood mononuclear cells; assay: IL-7-modified 7-day primary proliferation assay of peripheral blood mononuclear cells; settings: number of wells of 10 with positive primary proliferative response, 15 μg/ml peptide
Experimental: as §2

[2] = tested on: TCRζ-chain phosphoisoforms / ZAP-70 in CSF-3 cells; assay: T-cell-receptor signaling (tyrosine phosphorylation of TCR subunits, ZAP-70 immunoprecipitation); settings: CSF-3 cells stimulated 5 or 10 min
Experimental: T-cells (1×10^6) were added to peptide-pulsed bare lymphocyte syndrome cells (2×10^6) and, after centrifugation (10 s at 300 g), were incubated at 37° C., washed once with PBS and incubated for 25 min on ice in lysis buffer (1% Nonidet-P40, 10 mM Tris-HCl, pH 7.2, 140 mM NaCl, 2 mM EDTA, 5 mM iodoacetamide, 1 mM Na3VO4 and complete protease inhibitor ‘cocktail’; Boehringer). After nuclear debris were removed, proteins in lysate supernatants were immunoprecipitated by incubation at 4° C. for 12 h with rabbit antibody against ZAP-70 (provided by L. Samelson, National Institute of Child Health and Human Development, National Institutes of Health). Proteins were separated by SDS-PAGE and immunoblotted with 4G10, a mouse monoclonal antibody against phosphotyrosine (Upstate Biotechnology, Lake Placid, N.Y.).

TCC GP5F11 = assay: Proliferative assay of TCC GP5F11 (3H-thymidine incorporation); settings: FIG. 4; result in words
Experimental: as §1

[3] = background 1,306 ± 582 c.p.m., Table 9
[4] = human autoantigenic mimics, Table 9
[5] = background 2,899 ± 1,417 c.p.m., Table 8
[6] = B. burgdorferi peptides, Table 8
[7] = background 2,899 ± 1,417 c.p.m., Table 10

| Substance | EC50 (T-cell clone CSF-3) | PB PP [1, 5] | Potency EC50 (T-cell clone CSF-3; [6]) | Potency % of Max. response (T-cell clone CSF-3; Table 8) | also measured |
| --- | --- | --- | --- | --- | --- |
| DNIFKKETLI [D N I F K K E T L I, DNIFKKETLI] | 1 µg/mL | – | – | – | – |
| DNITSSVLFN [Peptide 71, DNITSSVLFN] | – | – | – | – | PB PP [1, 3]: 5; Potency EC50 (T-cell clone CSF-3; [4]): 0.1 to 1 µg/mL; Potency max. response (T-cell clone CSF-3; Table 9): 60.6%; effect on early TCR signaling events (TCRζ-chain p38 phospho-isoforms, recruitment of active ZAP-70) [2]: fall agonist response |
| ENIKKILLRE [Peptide 46, ENIKKILLRE] | – | 3 | 0.1 to 1 µg/mL | 65.1% | – |
| ENIYYSSVRT [Peptide 77, ENIYYSSVRT] | – | – | – | – | PB PP [1, 7]: 3; Potency EC50 (T-cell clone CSF-3; viral mimic peptides, Table 10): 1 to 10 µg/mL; Potency % of max. response (T-cell clone CSF-3; Table 10): 100% |
| ENVKKSRRLI [Peptide 66, ENVKKSRRLI] | – | – | – | – | PB PP [1, 3]: 0; Potency EC50 (T-cell clone CSF-3; [4]): 0.1 to 1 µg/mL; Potency max. response (T-cell clone CSF-3; Table 9): 64.1% |
| FFIKKRSLII [Peptide 54, FFIKKRSLII] | 1 µg/mL | 5 | 1 to 10 µg/mL | 59.8% | – |
| FNIIKSLLGG [52′, FNIIKSLLGG] | – | – | – | – | Potency EC50 (T-cell clone CSF-3; viral mimic peptides, Table 10): 1 to 10 µg/mL; stimulation (proliferation) of T-cell clone CSF-3 (T-cell clone CSF-3; result in words): stimulatory |
| FNIIKVHSSL [Peptide 37, FNIIKVHSSL] | – | 1 | 0.001 to 0.01 µg/mL | 69.3% | – |
| FNITSSIRNK [Peptide 75, FNITSSIRNK] | – | – | – | – | PB PP [1, 7]: 1; Potency EC50 (T-cell clone CSF-3; viral mimic peptides, Table 10): 1 µg/mL; Potency % of max. response (T-cell clone CSF-3; Table 10): 63.5% |
| FNITSSTCEL [Peptide 64, FNITSSTCEL] | – | – | – | – | PB PP [1, 3]: 1; Potency EC50 (T-cell clone CSF-3; [4]): 0.1 to 1 µg/mL; Potency max. response (T-cell clone CSF-3; Table 9): 66.3% |
| FNIYKRVVDN [F N I Y K R V V D N, FNIYKRVVDN] | 1 µg/mL | – | – | – | – |
| GHIKKKRVEA [Peptide 63, GHIKKKRVEA] | – | – | – | – | PB PP [1, 3]: 0; Potency EC50 (T-cell clone CSF-3; [4]): 1 to 10 µg/mL; Potency max. response (T-cell clone CSF-3; Table 9): 56.5% |
| LHIISKRVEA [Peptide 61, LHIISKRVEA] | – | – | – | – | PB PP [1, 3]: 0; Potency EC50 (T-cell clone CSF-3; [4]): 0.1 to 1 µg/mL; Potency max. response (T-cell clone CSF-3; Table 9): 70.0% |
| LNIKNSKLEI [Peptide 30, LNIKNSKLEI] | – | 0 | <0.001 µg/mL | 64.2% | – |
| LNITSSSYLF [Peptide 42, LNITSSSYLF] | – | 0 | 1 to 10 µg/mL | 71.4% | – |
| NNIDKKVYTN [N N I D K K V Y T N, NNIDKKVYTN] | 1 to 10 µg/mL | – | – | – | – |

| Substance | EC50 (T-cell clone CSF-3) | PB PP [1, 5] | Potency EC50 (T-cell clone CSF-3; [6]) | Potency % of Max. response (T-cell clone CSF-3; Table 8) | also measured |
| --- | --- | --- | --- | --- | --- |
| NNIKSKVDNA [Peptide 47, NNIKSKVDNA] | – | 0 | 1 to 10 µg/mL | 80.6% | – |
| NNIYKKALIS [Peptide 59, NNIYKKALIS] | 1 µg/mL | 3 | 0.1 to 1 µg/mL | 68.1% | effect on early TCR signaling events (TCRζ-chain p38 phospho-isoforms, recruitment of active ZAP-70) [2]: fall agonist response |
| PIP5 KIII246-255: low-scoring peptide derived from H. sapiens phosphatidylinositol-4-phosphate 5-kinase type III (LDPSEPRTPV; UniProt Q9Y2I7 246-255, looked up, fragment) | – | – | – | – | proliferative response of TCC GP5F11 (potency) (TCC GP5F11): non-stimulatory |
| PNITFSVVYN [Peptide 74, PNITFSVVYN] | – | – | – | – | PB PP [1, 7]: 0; Potency EC50 (T-cell clone CSF-3; viral mimic peptides, Table 10): 0.1 to 1 µg/mL; Potency % of max. response (T-cell clone CSF-3; Table 10): 78.3% |
| QAIGKKTQNN [Peptide 26, QAIGKKTQNN] | – | 3 | <0.001 µg/mL | 80.8% | – |
| RNIFKKTVEN [R N I F K K T V E N, RNIFKKTVEN] | >100 µg/mL | – | – | – | – |
| SFIYSVVCLV [Peptide 62, SFIYSVVCLV] | – | – | – | – | PB PP [1, 3]: 9; Potency EC50 (T-cell clone CSF-3; [4]): 0.1 to 1 µg/mL; Potency max. response (T-cell clone CSF-3; Table 9): 75.7% |
| SNIIKKTSED [Peptide 57, SNIIKKTSED] | 1 µg/mL | 4 | 0.1 to 1 µg/mL | 65.2% | – |
| SNIIKSLSLF [S N I I K S L S L F, SNIIKSLSLF] | 0.1 to 1 µg/mL | – | – | – | – |
| SNIKSKLILV [S N I K S K L I L V, SNIKSKLILV] | 1 µg/mL | – | – | – | – |
| TLITKKISAI [Peptide 28, TLITKKISAI] | – | 1 | <0.001 µg/mL | 65.9% | – |
| WMKQNIGRFL [predicted stimulatory peptide with optimal amino acids in each position for TCC GP5F11] | – | – | – | – | proliferative response of TCC GP5F11 (potency) (TCC GP5F11): two orders of magnitude more potent than the target sequence |
| YNIIVSSLLL [Y N I I V S S L L L, YNIIVSSLLL] | 1 to 10 µg/mL | – | – | – | – |
| YNIKKIKVED [Peptide 38, YNIKKIKVED] | – | 1 | 0.1 to 1 µg/mL | 62.7% | – |
| YVKQNTLKLA (listed as Influenza virus) [Flu-HA308-317, influenza virus hemagglutinin decamer, target peptide of TCC GP5F11, reference compound] | – | – | – | – | proliferative response of TCC GP5F11 (potency) (TCC GP5F11): intermediate potency |
